Consider eight molecules from EP4692094A1 (Beijing Konruns Pharmaceutical Co., Ltd., priority 2023, dated 2024).

One series deals with T1, KAT6A (Homo sapiens, UniProt Q92794).
T1 construct: purchased active motife (Active Motif) 81223
Briefly: Enzymatic activity assay for KAT6A acetyltransferase (TR-FRET, acetylation of histone substrate H3). Type of series: biochemical. An outline of the steps: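 TR-FRET detection of biotinylated H3 acetylation by KAT6A with acetyl-CoA; compounds in 10-point 3-fold dilution (0.5% DMSO final) preincubated with enzyme 10 min at 25 °C, then 90 min reaction and 60 min Eu-antibody/ULight-SA detection at 25 °C. HTRF 665/615 ratio normalised to DMSO (0%) and top-dose control (100%); IC50 by nonlinear fit.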
A general note: Time-resolved FRET reads energy transfer from a long-lived donor to a nearby acceptor.

The test system of series [1] is human breast cancer cell line ZR-75-1. Kind of series: Assay for cell growth inhibitory activity (3D hydrogel culture, CCK-8). It is filed as cell-based. Conditions: 96 h; for viability at 0.0001 µM: ZR-75-1, 0.1 nM, read-out: Cell survival rate at example drug concentration 0.1 nM; for viability at 0.001 µM: ZR-75-1, 1 nM, read-out: Cell survival rate at example drug concentration 1 nM; for viability at 0.01 µM: ZR-75-1, 10 nM, read-out: Cell survival rate at example drug concentration 10 nM; for viability at 0.1 µM: ZR-75-1, 100 nM, read-out: Cell survival rate at example drug concentration 100 nM; for viability at 1 µM: ZR-75-1, 1000 nM, read-out: Cell survival rate at example drug concentration 1000 nM. As for the experimental part:
The human breast cancer cell line ZR-75-1 (1 × 10^^6 cells per cell culture dish with 100-mm diameter) was cultured in a 1640 culture medium, and 1% double antibiotics (streptomycin and penicillin), 10% fetal bovine serum (FBS), and 1% glutamine (Glumax) were added simultaneously. The cell culture dish was placed at 37 °C with 5% CO2 for 2 days for culture until the cell confluence reached 80%-90% to give cells in the logarithmic growth phase.
• 1) The example compounds were each dissolved in dimethylsulfoxide to give solutions at a concentration of 10 mmol/L, and the solutions were diluted to 250 µmol/L in 10-fold gradient for 5 concentrations, i.e., 0.2 nmol/L, 2 nmol/L, 20 nmol/L, 200 nmol/L, and 2000 nmol/L. • 2) Blank control wells were prepared by adding 0.1% dimethylsulfoxide to the cultured cells, and were used as high-reading control wells; cell-free 3D hydrogel was used as background wells. • 3) The cultured cells were separately added to the compounds in the examples at 0.2 nmol/L, 2 nmol/L, 20 nmol/L, 200 nmol/L, and 2000 nmol/L as test wells, with the same volumes as the original culture solutions.
• 1) The cells were collected, resuspended in a PBS balanced salt solution, and counted; and the cells were mixed with the 3D hydrogel stock solution and prepared into hydrogel cell suspensions with proper density. • 2) The 3D hydrogel cell suspension (5 × 10^^4 cells) was added to each well in 96-well cell culture plates with low surface adsorption, and the plates were incubated at 37 °C with 5% CO2 for 20 min. • 3) The complete culture medium containing the compound prepared in 1.2 with an equal volume to that of the cell suspension in step 2 was added to the 96-well cell culture plate. • 4) The cells were cultured at 37 °C in a 5% CO2 incubator for 96 h.
• 1) The complete culture medium in the upper layer above the hydrogel was pipetted from each well of the 96-well cell culture plate with a vacuum pump or a manual pipette with careful processing to avoid breaking the hydrogel lower layer. • 2) The complete culture medium containing the CCK-8 substrate with an equal volume to that of the original hydrogel was added to each well. • 3) The plate was cultured at 37 °C with 5% CO2 for 1 h. • 4) The 96-well cell culture plate was placed in a microplate reader, and the values of A450 and A630 were separately detected.
Data analysis: The relative inhibitory level was analyzed by using Excel software, and the survival rates of cells under different compound culture conditions were obtained; [formula]
High-reading control well: cells + dimethylsulfoxide; background well: cell-free hydrogel. Table 7. Cell proliferation inhibitory activity of some of example compounds

Series [2] can be described thus: In-vivo pharmacokinetic study in rats. Conditions: female, SD, rat, plasma, po, 5 mg/kg, intragastric administration; for AUC(0-t): read-out: AUC0-24h. Also noted: species or system SD female rats. As for the experimental part: 1.1 Instrument: high-performance liquid chromatograph: SHIMADZU LC-30AD; mass spectrum: AB SCIEX mass spectrometer Triple Quad 5500; all measured data were calculated and processed using Microsoft Excel, and relevant pharmacokinetic parameters were calculated using WinNonlin software. The main obtained kinetic parameters are Tmax, T1/2, Cmax, AUC0-24 h, and AUCinf. […] Sample injection amount: 1 µL.
1.2 Animals: three SD female rats were used. The body weight range was 180-300 g. After purchase, the rats were bred in the experimental animal center for two days for later use. The rats were fasted 12 h before administration and 4 h after administration, and given ad libitum access to water during the assay. Blood samples were taken at predetermined time points after intragastric administration.
1.3 Vehicle: 0.5% HPMC (hydroxypropyl methylcellulose) + 0.4% Tween80 + 99.1% water. Preparation of intragastric administration solution: The compound was precisely weighed, the vehicle was added, and then the drug was completely dissolved by ultrasonication at room temperature for 5 min and prepared into a 0.5 mg/mL solution. After the intragastric administration, blood samples were taken at 0.083 h, 0.25 h, 0.5 h, 1.0 h, 2.0 h, 4.0 h, 7.0 h, and 24 h. The blood collection mode is as follows: 0.2 mL of the jugular vein blood was collected, EDTA-K2 was used as an anticoagulation agent, the collected blood sample was transferred into a microcentrifuge tube containing the anticoagulation agent, and the tube was centrifuged at 4 °C and 4000 g for 5 min to separate the plasma. All plasma samples collected were stored at -75±15 °C until analysis.
The compound was precisely weighed and prepared into a standard curve working solution and a quality control working solution at different concentrations. The blank plasma was added and prepared into a plasma standard curve and a quality control sample. LC/MS/MS analysis was performed after pretreatment using a protein precipitation method, and then the concentration of the compounds described above in the plasma was measured. All measured data were collected and processed by the relevant software, and pharmacokinetic parameters were calculated using Winnonlin software. Table 9. Pharmacokinetic parameters of some compounds in the examples in rats

A short description of series [3]: Assay for plasma protein binding rate (equilibrium dialysis), human plasma. Type of series: in vitro ADME. Conditions: dialysis 6 h at 37 °C, read-out: Human (Fu%). As for the experimental part:
(§1) 1.1 Preparation of compounds: The compounds prepared in the examples were each dissolved in dimethylsulfoxide to give solutions at a concentration of 10 mmol/L. • 1) The example compounds were each diluted from 10 mmol/L stock solution to 0.2 mmol/L, i.e., 1 µL of the compound was added to 49 µL of DMSO; • 2) 3 µL of 0.2 mmol/L test compounds were added to 597 µL of blood plasma, and the mixtures were vortexed at 1000 rpm for 2 min; • 3) 50 µL of the plasma containing the drug in 2) was taken, 50 µL of PBS was added, and 300 µL of methanol internal standard* was added to serve as a sample T0; • 4) 120 µL of the plasma containing the drug in 2) was taken and added to one side of an HTD device membrane, and 120 µL of PBS was added to the other side of the membrane; a breathable film was covered, and the plasma and the residual sample in 2) were balanced at 37 °C (100 rpm and 5% CO2) for 6 h; • 5) 50 µL of the dialyzed plasma side sample was taken, 50 µL of PBS was added, and 300 µL of methanol internal standard* was added to serve as a sample P; • 6) 50 µL of the dialyzed PBS side sample was taken, 50 µL of blank plasma was added, and 300 µL of methanol internal standard* was added to serve as a sample B; • 7) 50 µL of the plasma containing the drug in 2) was taken, 50 µL of PBS was added, and 300 µL of methanol internal standard* was added to serve as a sample T6; • 8) All samples were vortexed, mixed homogeneously, and then centrifuged at 3220 g for 40 min at 4 °C; • 9) 100 µL of the supernatant and 100 µL of purified water were mixed homogenously for liquid chromatography-mass spectrometry.
(§2) An internal standard method was used, and the plasma protein binding rate, recovery rate, and residual percentage were calculated by using Excel according to the ratio of the peak area of the sample to the peak area of the internal standard. Free rate(%) = (RatioB)/(RatioP) × 100% [formula] Binding rate(%) = 100%−Free rate% [formula] Recovery rate(%) = (RatioB + RatioP)/(RatioT0) × 100% [formula] Remaining percentage(%) = (RatioT6)/(RatioT0) × 100% [formula]
(§3) RatioB: a ratio of the peak area of the test substance on the PBS side to the peak area of the internal standard; RatioP: a ratio of the peak area of the test substance on the plasma side to the peak area of the internal standard; RatioT6: a ratio of the peak area of the sample after incubation with the test substance for 6 h to the peak area of the internal standard; RatioT0: a ratio of the peak area of the sample after incubation with the test substance for 0 h to the peak area of the internal standard. Table 8. Plasma protein binding rate (Fu%) data for various species of example compounds
On the technique in general: In equilibrium dialysis only unbound substance equilibrates across the membrane.

A short description of series [4]: Assay for plasma protein binding rate (equilibrium dialysis), mouse plasma. Particulars: dialysis 6 h at 37 °C, read-out: Mouse (Fu%). Type of series: in vitro ADME. As for the experimental part:
as §1, §2, §3

Series [5] in a line: Assay for plasma protein binding rate (equilibrium dialysis), rat plasma. Type of series: in vitro ADME. Particulars: dialysis 6 h at 37 °C, read-out: Rat (Fu%). As for the experimental part: as §1, §2, §3
Series [6] can be described thus: Assay for plasma protein binding rate (equilibrium dialysis), dog plasma. It is filed as in vitro ADME. Particulars: dialysis 6 h at 37 °C, read-out: Dog (Fu%). As for the experimental part:
as §1, §2, §3

T1 sequence (Q92794 whole entry): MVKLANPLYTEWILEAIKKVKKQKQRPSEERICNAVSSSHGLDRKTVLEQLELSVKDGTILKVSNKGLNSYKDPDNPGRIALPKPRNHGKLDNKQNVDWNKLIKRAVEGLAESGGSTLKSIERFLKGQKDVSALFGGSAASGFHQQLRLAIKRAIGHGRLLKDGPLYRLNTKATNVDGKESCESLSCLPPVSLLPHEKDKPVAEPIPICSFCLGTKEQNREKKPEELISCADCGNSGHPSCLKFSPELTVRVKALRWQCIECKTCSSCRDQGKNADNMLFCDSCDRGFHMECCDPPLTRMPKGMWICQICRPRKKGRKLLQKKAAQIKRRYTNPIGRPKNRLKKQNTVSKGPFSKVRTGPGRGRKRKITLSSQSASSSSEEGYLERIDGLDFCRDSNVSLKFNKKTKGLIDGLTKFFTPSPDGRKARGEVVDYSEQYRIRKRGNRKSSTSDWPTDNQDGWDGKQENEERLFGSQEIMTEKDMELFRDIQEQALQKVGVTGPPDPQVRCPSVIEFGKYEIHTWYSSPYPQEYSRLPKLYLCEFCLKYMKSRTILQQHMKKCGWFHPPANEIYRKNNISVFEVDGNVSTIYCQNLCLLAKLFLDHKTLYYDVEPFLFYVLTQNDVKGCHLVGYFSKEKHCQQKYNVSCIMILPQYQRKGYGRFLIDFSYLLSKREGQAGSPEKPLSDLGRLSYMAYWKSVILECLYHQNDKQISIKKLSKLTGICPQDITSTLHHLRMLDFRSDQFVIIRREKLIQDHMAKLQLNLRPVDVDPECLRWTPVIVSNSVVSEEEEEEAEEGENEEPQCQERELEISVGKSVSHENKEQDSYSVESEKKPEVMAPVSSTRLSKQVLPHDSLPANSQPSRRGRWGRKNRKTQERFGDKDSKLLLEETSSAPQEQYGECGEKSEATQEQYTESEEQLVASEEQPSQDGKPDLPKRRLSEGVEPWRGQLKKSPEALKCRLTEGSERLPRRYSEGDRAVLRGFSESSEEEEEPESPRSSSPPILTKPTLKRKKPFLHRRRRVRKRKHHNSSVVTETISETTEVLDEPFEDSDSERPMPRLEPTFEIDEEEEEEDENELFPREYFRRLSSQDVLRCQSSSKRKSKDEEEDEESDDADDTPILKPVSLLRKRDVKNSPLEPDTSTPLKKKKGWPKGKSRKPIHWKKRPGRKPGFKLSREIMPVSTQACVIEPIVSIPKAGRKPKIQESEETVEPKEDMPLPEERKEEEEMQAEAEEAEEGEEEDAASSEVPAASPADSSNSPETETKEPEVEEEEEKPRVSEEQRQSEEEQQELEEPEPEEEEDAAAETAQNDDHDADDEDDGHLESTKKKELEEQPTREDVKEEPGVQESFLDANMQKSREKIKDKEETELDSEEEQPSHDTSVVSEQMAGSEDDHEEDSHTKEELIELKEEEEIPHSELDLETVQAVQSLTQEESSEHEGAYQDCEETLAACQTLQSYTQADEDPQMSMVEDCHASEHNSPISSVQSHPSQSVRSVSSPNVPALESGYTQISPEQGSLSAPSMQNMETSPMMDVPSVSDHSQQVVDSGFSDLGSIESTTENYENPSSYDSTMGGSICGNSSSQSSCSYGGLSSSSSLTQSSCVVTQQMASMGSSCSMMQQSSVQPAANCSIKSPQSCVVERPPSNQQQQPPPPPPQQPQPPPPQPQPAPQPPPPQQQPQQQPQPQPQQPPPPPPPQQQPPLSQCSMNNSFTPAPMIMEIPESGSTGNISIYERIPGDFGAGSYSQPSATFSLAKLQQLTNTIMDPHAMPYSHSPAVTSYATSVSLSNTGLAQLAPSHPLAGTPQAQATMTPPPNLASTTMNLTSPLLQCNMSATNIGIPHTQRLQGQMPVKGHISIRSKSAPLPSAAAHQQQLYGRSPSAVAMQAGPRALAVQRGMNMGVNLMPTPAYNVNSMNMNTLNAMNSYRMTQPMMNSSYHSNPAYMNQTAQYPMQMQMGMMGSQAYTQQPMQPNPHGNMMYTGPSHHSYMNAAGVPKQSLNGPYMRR

On to `COc1nc(Cn2cccn2)cc2onc(NS(=O)(=O)c3cccc4c3OCC4)c12` [Example 1, N-(6-((1H-pyrazol-1-yl)methyl)-4-methoxyisoxazolo[4,5-c]pyridin-3-yl)-2,3-dihydrobenzofuran-7-sulfonamide], for which half-maximal inhibition against KAT6A (IC50) was put at 7.33 nM. Also, in series [1], the viability at 0.0001 µM amounted to 95%, the viability at 0.001 µM is 80%, the viability at 0.01 µM was 54% and the viability at 0.1 µM amounted to 40%. The viability at 1 µM in series [1] amounted to 30%.

On to `COc1ccc2c(c1S(=O)(=O)Nc1noc3cc(Cn4cccn4)nc(OC)c13)CCCC2` [Example 3], for which, on KAT6A, the IC50 (usually the midpoint of a concentration-inhibition curve) stood at 1.76 nM. Further, in series [1], the viability at 0.0001 µM turned out to be 71%, the viability at 0.001 µM is 55%, the viability at 0.01 µM came out at 43% and the viability at 0.1 µM stood at 40%. Further, in series [1], the viability at 1 µM is 29%.

For the molecule `COc1nc(Cn2cccn2)cc2onc(NS(=O)(=O)c3cccc4c3ccn4C)c12` [Example 6, N-(6-((1H-Pyrazol-1-yl)methyl)-4-methoxyisoxazolo[4,5-c]pyridin-3-yl)-1-methyl-1H-indole-4-sulfonamide], in series [2], the half-life – broadly, how long it takes for the measured level to halve – is 1480 min; the AUC(0-inf) (usually total exposure, with the tail of the curve extrapolated) stood at 1300 µg·h/mL; the Cmax (as a rule, the highest concentration seen after dosing) amounted to 31600 ng/mL; the Tmax – broadly, the time at which the peak concentration occurs – turned out to be 19.8 min. Also, in series [2], the AUC(0-t) was 502 µg·h/mL. On KAT6A, inhibition was half-maximal at 3.11 nM (IC50). Besides, in series [1], the viability at 0.0001 µM was 74%, the viability at 0.001 µM came to 66%, the viability at 0.01 µM worked out at 45% and the viability at 0.1 µM was found to be 38%. Also, the viability at 1 µM in series [1] was determined as 25%.

Turning to `COc1nc(Cn2cccn2)cc2onc(NS(=O)(=O)c3cccc4c3OCO4)c12` [Example 28, N-(6-((1H-Pyrazol-1-yl)methyl)-4-methoxyisoxazolo[4,5-c]pyridin-3-yl)-1,3-benzodioxole-4-sulfonamide], the fraction unbound at 6 h, 1 µM in series [3] stood at 0.0086; in series [4], 0.0205. At KAT6A, this molecule returned an IC50 of 3.55 nM.

For `COc1cc2ccoc2cc1S(=O)(=O)Nc1noc2cc(Cn3cccn3)nc(OC)c12` [Example 44, N-(6-((1H-Pyrazol-1-yl)methyl)-4-methoxyisoxazolo[4,5-c]pyridin-3-yl)-5-methoxybenzofuran-6-sulfonamide], the fraction unbound at 6 h, 1 µM was determined as 0.0149 in series [3], 0.0176 in series [5], 0.048 in series [4] and 0.0023 in series [6]. The molecule also yielded an IC50 against KAT6A of 8.28 nM.

As for `COc1ccc2occc2c1S(=O)(=O)Nc1noc2cc(Cn3cccn3)nc(OC)c12` [Example 45, N-(6-((1H-Pyrazol-1-yl)methyl)-4-methoxyisoxazolo[4,5-c]pyridin-3-yl)-5-methoxybenzofuran-4-sulfonamide], the results for the fraction unbound at 6 h, 1 µM in series [3] and in series [4] were 0.0066 and 0.0145, respectively. The IC50 against KAT6A came to 9.45 nM.

`COc1cc2c(cc1S(=O)(=O)Nc1noc3cc(Cn4cccn4)nc(OC)c13)OCO2` [Example 57, N-(6-((1H-Pyrazol-1-yl)methyl)-4-methoxyisoxazolo[4,5-c]pyridin-3-yl)-6-methoxy-1,3-benzodioxole-5-sulfonamide]: the fraction unbound at 6 h, 1 µM in series [3] worked out at 0.0264; in series [4], 0.0565. This molecule also registered an IC50 at KAT6A of 0.95 nM.

As to `COc1cc2cccnc2cc1S(=O)(=O)Nc1noc2cc(Cn3cccn3)nc(OC)c12` [Example 75, N-(6-((1H-Pyrazol-1-yl)methyl)-4-methoxyisoxazolo[4,5-c]pyridin-3-yl)-6-methoxyquinoline-7-sulfonamide], in series [2], the AUC(0-inf) came out at 30.6 µg·h/mL, the Cmax was 10800 ng/mL, the Tmax worked out at 15 min and the AUC(0-t) was 30.6 µg·h/mL. For the same molecule, in series [3], the fraction unbound at 6 h, 1 µM turned out to be 0.0091. Further, the IC50 at KAT6A was 2.41 nM. Also, the fraction unbound at 6 h, 1 µM in series [4] worked out at 0.0163.
